Reference: PubChem BioAssay AID602236 (The Scripps Research Institute Molecular Screening Center, 2012)
Activity calls are given as the source filed them.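 Rule for the calls: active = IC50 of 10 µM or lower; inactive = IC50 above 10 µM.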

Each compound was assayed on HEK-293 Gal4-VP16 UAS luciferase reporter, luminescence (assay: VP16 transactivation inhibitor potency, dose response, counter-screen for SRC1 inhibitor project, cell-based, luminescence, high throughput, SRC1 series (AID 602236);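 note: inhibitor potency where hits lower luciferase light from Gal4-VP16 transactivation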).
In the case of `CC(NC(=O)COC(=O)c1cccs1)c1ccccc1` (configuration not stated), the IC50 is reported as > 35.9 µM (inactive).
In the case of `O=C(CCl)N1N=C(c2ccco2)CC1c1ccco1` (configuration not stated), the IC50 is reported as > 12 µM (inactive).
With `COc1ccc2c(C#N)c3ccccn3c2c1` the IC50 was > 35.8 µM (inactive).
For `Cc1nc2sc(C(N)=O)c(N)c2c(C)c1CC(=O)c1ccccc1`, the IC50 was > 35.9 µM (inactive).
With `CCOC(=O)c1cccc2c1-c1ccccc1/C2=N/O` the IC50 was 8.12 µM.
For `OCCN(CCO)CC(O)COc1ccc(C23CC4CC(CC(C4)C2)C3)cc1` (configuration not stated), the IC50 was > 35.9 µM (inactive).
In the case of `CCCc1cc(C(=O)N(C)CC(=O)Nc2ccc(OCC)c(OCC)c2)sc1C`, the IC50 is reported as > 35.9 µM (inactive).
`CCCCC(=O)Nc1cccn2ncnc12` was tested, and the IC50 was > 35.9 µM (inactive).
With `CCOC(=O)c1c(NC(=O)C(C)N2CCN(C(=O)c3ccco3)CC2)sc2c1CCCC2` (configuration not stated) the IC50 was 11.4 µM (inactive).
For `COc1cccc(/C=N/NC(=O)CNC(=O)C2COc3ccccc3O2)c1O` (configuration not stated), the IC50 was 11.1 µM (inactive).
With `O=C(Nc1c(-c2ccccc2)[nH][nH]c1=O)c1cccc(C(F)(F)F)c1` the IC50 was > 35.8 µM (inactive).
`CC(=O)/C(N=Nc1ccc2c(c1)OCCO2)=C(\C)O` was tested, and the IC50 was > 35.9 µM (inactive).
`CCCCCOc1ccc(/C=C/c2c([N+](=O)[O-])c(=O)n(C)c(=O)n2C)cc1` was tested, and the IC50 was 10.1 µM (inactive).
Compound `O=C(Nc1cccc(C(F)(F)F)c1)Nc1nnc([C@@H]2C[C@H](O)[C@@H](CO)O2)s1` has an IC50 of 7.89 µM.
With `Fc1cccc(CSc2nnc3ccc(-c4ccncc4)nn23)c1` the IC50 was > 35.8 µM (inactive).
In the case of `COc1ccc2[nH]c(=O)c(CN(CCN3CCCC3)C(=O)Nc3ccccc3Cl)cc2c1`, the IC50 is reported as 23.8 µM (inactive).
`Cc1sc2ncnc(N3CCC(C(=O)Nc4cc(S(C)(=O)=O)ccc4Cl)CC3)c2c1C` was tested, and the IC50 was 20.7 µM (inactive).
With `CCOc1cc(C(N)=O)cc(Br)c1OC` the IC50 was 17.1 µM (inactive).
For `COc1ccccc1CNC(=O)C(=O)NCCC1CCCCN1S(=O)(=O)c1ccc(C)cc1` (configuration not stated), the IC50 was 23.1 µM (inactive).
For `COc1ccc(-n2cnc(N)c2C(=O)c2cccc([N+](=O)[O-])c2)cc1`, the IC50 was 15.7 µM (inactive).
For `Nc1nc(CCl)nc(Nc2cccc3ccccc23)n1`, the IC50 was 11.1 µM (inactive).
In the case of `Cc1ccc(S(=O)(=O)N2[C@@H](c3ccc(C(C)(C)C)cc3)C(C(=O)O)=CC[C@H]2c2ccc(Cl)cc2)cc1`, the IC50 is reported as 16 µM (inactive).
`O=C(Nc1nc(-c2ccccn2)cs1)c1cccc(-n2cnnn2)c1` was tested, and the IC50 was 17 µM (inactive).
`CN(C)C(=O)c1ccc(-c2n[nH]c(=O)c3ccccc23)cc1` was tested, and the IC50 was 16.2 µM (inactive).
In the case of `CC1CCCCN1c1ncnc2ccccc12` (configuration not stated), the IC50 is reported as 13.4 µM (inactive).
With `C=CCc1ccccc1OCC(=O)N/N=C/c1ccc(OC(C)=O)cc1OC(C)=O` the IC50 was 22.8 µM (inactive).
For `COc1cc(OC)c2cc(C(=O)N/N=C/c3cccc(OC)c3O)[nH]c2c1`, the IC50 was 9.42 µM.
In the case of `NC(=O)c1cc(Sc2ccccc2)nc2ccccc12`, the IC50 is reported as 11.6 µM (inactive).
For `CCOC(=O)CSc1cc(-c2ccccc2)nc2ncnn12`, the IC50 was > 35.9 µM (inactive).
For `COc1ccc(NC(=O)CN(C)C(=O)C2(c3ccccc3)CCCC2)cc1`, the IC50 was 36.3 µM (inactive).
Work on `c1cnc2ccc(-n3ccnc3)cc2c1` yielded an IC50 of 9.58 µM.
With `CCC(=O)c1ccc(Oc2nc3c(c(=O)n(C)c(=O)n3C)n2CC)cc1` the IC50 was 12.4 µM (inactive).
In the case of `COc1ccc(C(O)(C(C)C)C(CN2CCOCC2)c2ccc(Cl)cc2)cc1` (configuration not stated), the IC50 is reported as 20 µM (inactive).
`Cc1nc2ccccn2c1-c1ccnc(=S)[nH]1` was tested, and the IC50 was > 35.8 µM (inactive).
In the case of `CCC(=O)Oc1c(C(=O)CC)cc2c(C)cc(=O)oc2c1C`, the IC50 is reported as 18.9 µM (inactive).
`C=CCn1c(O)c(C(C)=NCc2cc(OC)cc(OC)c2)c(=O)[nH]c1=O` showed an IC50 of 7.94 µM.
In the case of `Cc1sc2ncnc(N3CCC(C(=O)N(C)CC(=O)Nc4cccc(F)c4)CC3)c2c1C`, the IC50 is reported as 15 µM (inactive).
Compound `O=C(NC1CCCCC1)C(c1cccnc1)N(C(=O)CCl)c1cccc(Cl)c1` (configuration not stated) has an IC50 of 4.71 µM.
`Cc1ccc(/C=C2\SC(=S)N(CCCC(=O)NC3CCCC3)C2=O)cc1` was tested, and the IC50 was 5.37 µM.
`C=CCOc1ccc(/C=C2\SC(=S)N(CCC(=O)O)C2=O)cc1` was tested, and the IC50 was > 35.9 µM (inactive).
`Cc1cccc(C)c1-n1nnnc1C(c1cccs1)N1CCC2(CC1)C(=O)NCN2c1ccccc1` (configuration not stated) was tested, and the IC50 was 14.4 µM (inactive).
Compound `COc1cc(/C=C2\SC(N)=NC2=O)cc(OC)c1` has an IC50 of 8.33 µM.
`CCOc1ccc(/C=C2\SC(=S)N(CCCC(=O)NCCCN3CCOCC3)C2=O)cc1` was tested, and the IC50 was 21.9 µM (inactive).
`COc1ccc(/C=C2\CC/C(=C\c3ccc(OC)c(OC)c3)C2=O)cc1OC` showed an IC50 of 5.39 µM.
With `COc1ccc2ncn(-c3ccccc3)c2c1` the IC50 was 5.95 µM.
In the case of `O=C(O)CN1C(=O)/C(=C\c2ccccc2OCc2ccc(Cl)cc2Cl)SC1=S`, the IC50 is reported as > 35.9 µM (inactive).
`Cc1ccc(/C=C2/SC(=S)N(CCCC(=O)Nc3ccc(O)cc3)C2=O)cc1` was tested, and the IC50 was > 12 µM (inactive).
`Cc1ccc2occ(/C=N/NC(=O)[C@@H](N)Cc3ccccc3)c(=O)c2c1` was tested, and the IC50 was 12.7 µM (inactive).
`COc1cccc(C2=CC(=O)CC(C)(C)C2)c1` was tested, and the IC50 was 24 µM (inactive).
In the case of `O=C(CSc1nc(-c2cccs2)cc(C(F)(F)F)n1)Nc1cc(OCC(F)(F)C(F)F)cc([N+](=O)[O-])c1`, the IC50 is reported as 21.9 µM (inactive).
With `Nc1ccn(C2OC(CO)C(O)C2O)c(=O)n1` (configuration not stated) the IC50 was 21.7 µM (inactive).
With `COc1ccccc1-c1cc2nc(-c3ccccc3)cc(N3CCN(C(=O)c4ccco4)CC3)n2n1` the IC50 was 4.1 µM.
